ChEMBL document CHEMBL4813917, “2-((1-Phenyl-1H-1,2,3-triazol-4-yl)methyl)-2-azabicyclo[3.2.1]octan-3-one derivatives: Simplification and modification of aconitine scaffold for the discovery of novel anticancer agents” (Eur J Med Chem, 2021)
Calls of active or inactive are those of the source. The calls are words filed in the database; no cut-off is given here.

Experiments:
SW-620 [1] = experiment: Induction of apoptosis in human SW-620 cells assessed as late apoptotic cells at 80 nM measured after 24 hrs by Annexin V/PI staining based flow cytometry method (reference value: 1.3%); format: functional
LoVo [2] = experiment: Induction of apoptosis in human LoVo cells assessed as necrotic cells at 20 nM measured after 24 hrs by Annexin V/PI staining based flow cytometry method (reference value: 1.3%); format: functional
SW-620 [3] = experiment: Induction of apoptosis in human SW-620 cells assessed as increase in cleaved caspase-3 levels at 20 to 80 nM measured after 24 hrs by Western blot assay; format: functional, cell-based; details: dose 20-80 nM
SW-620 [4] = experiment: Induction of apoptosis in human SW-620 cells assessed as viable cells at 40 nM measured after 24 hrs by Annexin V/PI staining based flow cytometry method (reference value: 94%); format: functional; details: read-out: Activity
[5] = Cytotoxicity against human HPDE6c7 cells assessed as reduction in cell viability measured after 24 hrs by MTT assay; format: functional
LoVo [6] = experiment: Cell cycle arrest in human LoVo cells assessed as decrease of cells in G2/M phase at 20 to 80 nM measured after 24 hrs by PI staining based flow cytometry method; format: functional; details: dose 20-80 nM
SW-620 [7] = experiment: Inhibition of cell migration in human SW-620 cells at 20 to 80 nM measured after 24 hrs by wound healing assay; format: functional, cell-based; details: dose 20-80 nM
SW-620 [8] = experiment: Induction of apoptosis in human SW-620 cells assessed as late apoptotic cells at 20 nM measured after 24 hrs by Annexin V/PI staining based flow cytometry method (reference value: 1.3%); format: functional
[9] = target: Heat shock protein HSP 90-alpha (Homo sapiens, UniProt P07900); experiment: Inhibition of recombinant human N terminal his-tagged HSP90 alpha (1 to 732 residues) expressed in Escherichia coli measured after 60 mins by Flourescence polarization assay
SW-620 [10] = experiment: Induction of apoptosis in human SW-620 cells assessed as necrotic cells at 40 nM measured after 24 hrs by Annexin V/PI staining based flow cytometry method (reference value: 3%); format: functional
[11] = Cytotoxicity against human NCM460 cells assessed as reduction in cell viability measured after 24 hrs by MTT assay; format: cell-based
LoVo [12] = experiment: Induction of apoptosis in human LoVo cells assessed as late apoptotic cells at 40 nM measured after 24 hrs by Annexin V/PI staining based flow cytometry method (reference value: 1.6%); format: functional
A549 = experiment: Antiproliferative activity against human A549 cells assessed as inhibition of cell proliferation measured after 24 hrs by MTT assay; format: functional, cell-based; details: A549, 24 h
SW-620 [13] = experiment: Induction of apoptosis in human SW-620 cells assessed as necrotic cells at 80 nM measured after 24 hrs by Annexin V/PI staining based flow cytometry method (reference value: 3%); format: functional
LoVo [14] = experiment: Induction of apoptosis in human LoVo cells assessed as decrease in Bcl-2 levels at 20 to 80 nM measured after 24 hrs by Western blot assay; format: functional, cell-based; details: dose 20-80 nM
SW-620 [15] = experiment: Antitumour activity against human SW-620 cells xenografted in Balb/c mouse assessed as increase in cleaved-caspase 3 expression in tumour at 5 mg/kg, ip measured after 21 days immunochemical staining method; format: functional, organism-based; details: time 21.0 day
SW-620 [16] = experiment: Induction of apoptosis in human SW-620 cells assessed as increase in Bax levels at 20 to 80 nM measured after 24 hrs by Western blot assay; format: functional, cell-based; details: dose 20-80 nM
SW-620 [17] = experiment: Induction of apoptosis in human SW-620 cells assessed as early apoptotic cells at 40 nM measured after 24 hrs by Annexin V/PI staining based flow cytometry method (reference value: 1.7%); format: functional
SW-620 [18] = experiment: Cell cycle arrest in human SW-620 cells assessed as accumulation of cells in G0/G1 phase at 20 to 80 nM measured after 24 hrs by PI staining based flow cytometry method; format: functional; details: dose 20-80 nM
[19] = Cytotoxicity against human MRC5 cells assessed as reduction in cell viability measured after 24 hrs by MTT assay; format: cell-based
LoVo [20] = experiment: Induction of apoptosis in human LoVo cells assessed as viable cells at 80 nM measured after 24 hrs by Annexin V/PI staining based flow cytometry method (reference value: 93.5%); format: functional; details: read-out: Activity
LoVo [21] = experiment: Induction of apoptosis in human LoVo cells assessed as viable cells at 40 nM measured after 24 hrs by Annexin V/PI staining based flow cytometry method (reference value: 93.5%); format: functional; details: read-out: Activity
LoVo [22] = experiment: Induction of apoptosis in human LoVo cells assessed as necrotic cells at 80 nM measured after 24 hrs by Annexin V/PI staining based flow cytometry method (reference value: 1.3%); format: functional
SW-620 [23] = experiment: Induction of apoptosis in human SW-620 cells assessed as early apoptotic cells at 20 nM measured after 24 hrs by Annexin V/PI staining based flow cytometry method (reference value: 1.7%); format: functional
OVCAR-3 = experiment: Antiproliferative activity against human OVCAR-3 cells assessed as inhibition of cell proliferation measured after 24 hrs by MTT assay; format: functional, cell-based; details: OVCAR-3, 24 h
SGC-7901 = experiment: Antiproliferative activity against human SGC-7901 cells assessed as inhibition of cell proliferation measured after 24 hrs by MTT assay; format: functional, cell-based; details: SGC-7901, 24 h
HepG2 = experiment: Antiproliferative activity against human HepG2 cells assessed as inhibition of cell proliferation measured after 24 hrs by MTT assay; format: functional, cell-based; details: HepG2, 24 h
PANC-1 = experiment: Antiproliferative activity against human PANC-1 cells assessed as inhibition of cell proliferation measured after 24 hrs by MTT assay; format: functional, cell-based; details: PANC-1, 24 h
SW-620 [24] = experiment: Antitumour activity against human SW-620 cells xenografted in Balb/c mouse assessed as decrease in Ki67 expression in tumour at 5 mg/kg, ip measured after 21 days immunochemical staining method; format: functional, organism-based; details: time 21.0 day
LoVo [25] = experiment: Induction of apoptosis in human LoVo cells assessed as viable cells at 20 nM measured after 24 hrs by Annexin V/PI staining based flow cytometry method (reference value: 93.5%); format: functional; details: read-out: Activity
SW-620 [26] = experiment: Cell cycle arrest in human SW-620 cells assessed as decrease of cells in G2/M phase at 20 to 80 nM measured after 24 hrs by PI staining based flow cytometry method; format: functional; details: dose 20-80 nM
[27] = Cytotoxicity against human GES1 cells assessed as reduction in cell viability measured after 24 hrs by MTT assay; format: cell-based
SW-620 [28] = experiment: Antitumour activity against human SW-620 cells xenografted in Balb/c mouse assessed as inhibition of tumour growth at 5 mg/kg, ip measured after 21 days; format: functional; details: SW-620, ip, 504 h, time 21 day, read-out: TGI
[29] = Cytotoxicity against human IOSE80 cells assessed as reduction in cell viability measured after 24 hrs by MTT assay; format: cell-based
LoVo [30] = experiment: Induction of apoptosis in human LoVo cells assessed as early apoptotic cells at 80 nM measured after 24 hrs by Annexin V/PI staining based flow cytometry method (reference value: 1.6%); format: functional
SW-620 [31] = experiment: Induction of apoptosis in human SW-620 cells assessed as late apoptotic cells at 40 nM measured after 24 hrs by Annexin V/PI staining based flow cytometry method (reference value: 1.3%); format: functional
LoVo [32] = experiment: Induction of apoptosis in human LoVo cells assessed as increase in cleaved caspase-3 levels at 20 to 80 nM measured after 24 hrs by Western blot assay; format: functional, cell-based; details: dose 20-80 nM

With CC1(C)[C@H]2CC[C@]1(C)N(Cc1cn(-c3cccc(Br)c3)nn1)C(=O)C2 the Activity (SW-620 [1]) was 29.3%, the Activity (LoVo [2]) was 1.9% and the Activity (SW-620 [3]) was “Active”. The viability at 0.04 µM (SW-620 [4]) was 75.5%, the CC50 [5] was 13.8 µM and the Activity (LoVo [6]) was “Active”. The inhibition (SW-620 [7]) was “Dose-Dependent Effect”, the Activity (SW-620 [8]) was 8.5% and the IC50 [9] was 0.00071 µM. It also gave an Activity (SW-620 [10]) of 1.3%, a CC50 at 24 h [11] of 14.6 µM and an Activity (LoVo [12]) of 5.4%. For the same compound, the IC50 (A549) was 0.09 µM, the Activity (SW-620 [13]) was 3.7% and the Activity (LoVo [14]) was “Active”. The Activity (SW-620 [15]) was “Active”, the Activity (SW-620 [16]) was “Active” and the Activity (SW-620 [17]) was 8.1%. For the same compound, the Activity (SW-620 [18]) was “Active”, the CC50 at 24 h [19] was 38.8 µM and the viability at 0.08 µM (LoVo [20]) was 61.7%. It also gave a viability at 0.04 µM (LoVo [21]) of 89.8%, an Activity (LoVo [22]) of 6% and an Activity (SW-620 [23]) of 5.1%. It also gave an IC50 (OVCAR-3) of 0.03 µM, an IC50 (SGC-7901) of 0.12 µM and an IC50 (HepG2) of 0.02 µM. For the same compound, the IC50 (PANC-1) was 0.09 µM, the Activity (SW-620 [24]) was “Active” and the viability at 0.02 µM (LoVo [25]) was 91.9%. For the same compound, the Activity (SW-620 [26]) was “Active”, the CC50 at 24 h [27] was 9.93 µM and the inhibition in vivo at 5 mg/kg (SW-620 [28]) was 81.6%. For the same compound, the CC50 at 24 h [29] was 9.55 µM, the Activity (LoVo [30]) was 7.4% and the Activity (SW-620 [31]) was 15.1%. For the same compound, the Activity (LoVo [32]) was “Active”.
